One compound from patent US20230322756A1, “FUSED IMIDAZOLE DERIVATIVE, PREPARATION METHOD THEREFOR, AND MEDICAL USE THEREOF” (JIANGSU HENGRUI MEDICINE CO., LTD., priority 2020, published 2023) can be followed below.

The assay has as its target GLP-1 receptor (Homo sapiens (Human), UniProt P43220). The experiment in a line: Agonist activity against GLP-1 receptor, CRE-luciferase reporter (ONE-Glo) in CHO-K1/CRE-luc/GLP-1 receptor cells. Type of assay: cell-based. Conditions: 6 h incubation. The text has this: This experiment was intended to test the agonist activity of the compound molecules against the GLP-1 receptor and evaluate the in vitro activity of the molecules according to EC50. The experiment adopted a ONE-Glo™ Luciferase Assay System (Promega, E6110). Under the action of compound molecules, GLP-1R downstream signaling pathways were activated to cause elevated cAMP level. The combination of cAMP and CRE could start the transcription expression of CRE downstream luciferase genes, the luciferase could emit fluorescence when reacting with substrates thereof, and the activity of the compound for agonizing GLP-1 receptors was reflected by measuring fluorescence signals through a ONE-Glo™ reagent.
Stably-expressed CHO-K1/CRE-luc/GLP-1 receptor cell strains (self-construction of GLP-1 receptor plasmid; CRE-luc plasmid Promega E8471) were constructed. CHO-K1/CRE-luc/GLP-1 receptor cells were digested, and resuspended after centrifugation. […] The plate was incubated in an incubator for 16 h (37° C., 5% CO2).
The compound was dissolved in DMSO to prepare a stock solution with an initial concentration of 20 mM. The starting concentration of the small molecule compound was 0.2 mM, and the compound underwent 3-fold serial dilution for a total of 10 concentration points, with DMSO at the 11th point. To another 96-well plate was added 95 μL of cell culture medium (DME/F-12+10% FBS), 5 μL of test samples with different concentrations were added to each well, followed by uniform mixing, and then 10 μL of test samples with different concentrations were added to each well, with two duplicate wells set for each sample. The plate was incubated in an incubator for 6 h (37° C., 5% CO2). The 96-well cell culture plate was taken out, and 100 μL of ONE-Glo™ reagent was added to each well, followed by incubation at room temperature for 10 min. The plate was placed in a microplate reader (EnVision 2105, PE) for determination of chemiluminescence.
Data were processed and analyzed using Microsoft Excel and Graphpad Prism 5.

Sequence of GLP-1 receptor (P43220 24-463): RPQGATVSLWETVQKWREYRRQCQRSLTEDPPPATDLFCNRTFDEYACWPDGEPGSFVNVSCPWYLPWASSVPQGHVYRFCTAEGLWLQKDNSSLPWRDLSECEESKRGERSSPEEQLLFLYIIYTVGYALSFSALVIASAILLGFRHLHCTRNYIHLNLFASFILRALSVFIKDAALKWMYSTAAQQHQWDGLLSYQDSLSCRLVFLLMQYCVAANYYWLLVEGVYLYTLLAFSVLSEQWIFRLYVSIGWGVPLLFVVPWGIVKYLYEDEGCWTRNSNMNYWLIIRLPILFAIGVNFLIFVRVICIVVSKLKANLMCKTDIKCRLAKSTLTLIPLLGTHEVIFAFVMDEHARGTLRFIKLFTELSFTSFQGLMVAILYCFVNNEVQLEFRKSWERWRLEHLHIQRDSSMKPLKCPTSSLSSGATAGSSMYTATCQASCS

As for `O=C(O)c1ccc2nc(CN3CCC(c4cccc5c4O[C@@H](c4ccc(Cl)cc4F)CO5)CC3)n(C[C@@H]3CCO3)c2n1` [Example 5, 2-((4-((S)-3-(4-Chloro-2-fluorophenyl)-2,3-dihydrobenzo[b][1,4]dioxan-5-yl)piperidin-1-yl)methyl)-3-((S)-oxetan-2-ylmethyl)-3H-imidazo[4,5-b]pyridine-5-carboxylic acid], the EC50 is 0.12 nM and the Emax turned out to be 107%.
